Assay results taken from publication PMC6161599, “Inhibition of O-acetylserine sulfhydrylase by fluoroalanine derivatives” (Journal of Enzyme Inhibition and Medicinal Chemistry, 2018).

Legend:
Assay type in all cases: biochemical
[1] = target: T1, O-acetylserine sulfhydrylase B (OASS-B, CysM) (Salmonella enterica, UniProt P29848); assay: ninhydrin cysteine activity assay; PLP absorbance and fluorescence changes
T1 construct: recombinant STOASS-B, His-tag removed with factor Xa

[2] = target: T2, O-acetylserine sulfhydrylase A (OASS-A, CysK) (Salmonella enterica, UniProt P0A1E3); assay: ninhydrin cysteine activity assay; PLP absorbance ([…] to […] nm) and fluorescence changes
T2 construct: recombinant STOASS-A, His-tag removed with factor Xa
T2 sequence (P0A1E3 2-323): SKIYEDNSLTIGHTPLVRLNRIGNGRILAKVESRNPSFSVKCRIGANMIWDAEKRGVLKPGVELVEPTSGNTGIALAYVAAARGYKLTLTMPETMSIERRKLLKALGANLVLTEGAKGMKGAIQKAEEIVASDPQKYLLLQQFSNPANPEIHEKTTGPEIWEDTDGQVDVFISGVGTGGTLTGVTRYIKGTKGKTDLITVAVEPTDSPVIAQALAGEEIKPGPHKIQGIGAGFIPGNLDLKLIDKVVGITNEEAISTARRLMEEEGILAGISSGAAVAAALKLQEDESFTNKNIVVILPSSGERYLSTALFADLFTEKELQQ

[3] = target: T1, O-acetylserine sulfhydrylase B (OASS-B, CysM); assay: ninhydrin cysteine activity assay; inactivation kinetics; PLP absorbance and fluorescence changes
[4] = target: T2, O-acetylserine sulfhydrylase A (OASS-A, CysK); assay: as above

T1 sequence (P29848 whole entry): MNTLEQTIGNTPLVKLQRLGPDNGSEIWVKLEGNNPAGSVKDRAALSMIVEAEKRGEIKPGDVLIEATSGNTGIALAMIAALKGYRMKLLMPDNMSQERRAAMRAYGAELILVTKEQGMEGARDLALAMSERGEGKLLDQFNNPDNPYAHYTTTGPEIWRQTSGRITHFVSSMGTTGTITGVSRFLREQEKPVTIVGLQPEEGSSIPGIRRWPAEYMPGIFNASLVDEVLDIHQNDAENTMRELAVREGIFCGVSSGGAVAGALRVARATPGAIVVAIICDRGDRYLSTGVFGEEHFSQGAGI

SMILES	IC50 [1] [mM]	IC50 [2] [µM]	IC50 [3] [µM]	IC50 [4] [µM]
NC(CF)C(=O)O (stereo not shown) [F-Ala, monofluoroalanine]	1.29 ± 0.23	480 ± 50		
N[C@H](C(=O)O)C(F)(F)F [triF-Ala, β,β,β-trifluoroalanine]			940 ± 60	130 ± 10
